Data from patent US20220119355A1, “SATURATED-RING-FUSED DIHYDROPYRIMIDINONE OR DIHYDROTRIAZINONE COMPOUNDS AND PHARMACEUTICAL USE THEREOF” (Japan Tobacco Inc., priority 2018, published 2022).

Legend:
mouse RORγ = target: T1, mouse RORγ (Mus musculus, UniProt P51450); assay: In-vitro reporter gene assay for inhibitory activity against RORγ transcription, Test Method A (GAL4-mRORγ LBD / pG5-Luc in CHO cells); assay type: cell-based; settings: luciferase reporter, 2 days
T1 construct: from Ile251 to Lys516 for mouse RORγ; expressed in transfected cells; host or cells: CHO cells (transient co-transfection with pG5-Luc)
T1 sequence (P51450 251-516): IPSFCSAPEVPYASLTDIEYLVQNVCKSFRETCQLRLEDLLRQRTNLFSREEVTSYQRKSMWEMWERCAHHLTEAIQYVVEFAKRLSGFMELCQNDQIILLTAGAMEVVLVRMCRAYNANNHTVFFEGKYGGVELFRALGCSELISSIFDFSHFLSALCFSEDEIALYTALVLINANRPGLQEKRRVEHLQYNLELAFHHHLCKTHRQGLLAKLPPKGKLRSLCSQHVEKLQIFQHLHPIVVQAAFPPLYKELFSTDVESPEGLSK
Method: (§1) In-Vitro Assay for Inhibitory Activity Against RORγ Transcription
(§2) Inhibitory activity against RORγ transcription was assessed for test compounds by either of the following Test Method A or B of reporter gene assay.
(§3) cDNAs encoding human and mouse RORγ ligand binding domains (LBD) were obtained based on the sequences of human RORγ (Genbank registered number NM_005060.3) and mouse RORγ (Genbank registered number NM_011281.2) (LBD sequences: from Ser253 to Lys518 for human RORγ; from Ile251 to Lys516 for mouse RORγ).
(§4) LBD cDNAs of human and mouse RORγ were inserted into pFA-CMV vector (Stratagene), which expresses GAL4-DNA binding domain fusion protein. The resulting plasmids are hereinafter referred to as GAL4-hRORγ plasmid and GAL4-mRORγ plasmid, respectively.
(§5) GAL4-hRORγ plasmid or GAL4-mRORγ plasmid was transiently co-transfected into Chinese hamster ovary cells (CHO cells) with pG5-Luc (Promega), reporter plasmid expressing firefly luciferase in a GAL4-dependent manner.
(§6) TransIT (Registered trademark) CHO Transfection Kit (Mirus) was used to co-transfect CHO cells with the plasmids. One day prior to the assay, CHO cells were suspended in HAM F-12 Nutrient medium containing 10% (v/v) fetal bovine serum and seeded at 6×10^6 cells per 175 cm^2 cell culture flask each. 54 μL of TransIT (Registered trademark) CHO reagent was added into a 15 mL tube containing 1.16 mL of HAM F-12 Nutrient medium without fetal bovine serum, and then mixed and incubated at room temperature for 10 minutes. 36 μL of a plasmid solution containing 400 ng of GAL4-hRORγ plasmid, 9000 ng of pG5-Luc plasmid, and 8600 ng of pcDNA3 plasmid were added into the tube and mixed gently. In the case of mouse assay, a plasmid solution containing 250 ng of GAL4-mRORγ plasmid, 9000 ng of pG5-Luc plasmid, and 8750 ng of pcDNA3 plasmid was added, instead. The mixture was incubated at room temperature for 10 minutes. 9 μL each of CHO Mojo Reagent were then added into each tube and mixed gently. The mixture was incubated at room temperature for 10 minutes. The resulting transfection reagent was applied to the cell culture. After incubation at 37° C., 5% CO2 for 4 hours, the plasmid-transfected CHO cells were harvested by trypsin treatment. The collected cells were resuspended in culture medium and plated into a 384-well-white plate at 8,000 cells/50 μL/well. The plate was let stand at room temperature for 1 hour and then further incubated at 37° C., 5% CO2 for 3 hours. A test compound was dissolved in DMSO to obtain a concentration of 10 mM. Each solution was serially diluted with DMSO and further diluted with culture medium just before use. The test compound solutions were added. to the cells in the plate at 8 different concentrations. The final concentration of DMSO was 0.2% (v/v). After the addition of test compound, the cells were incubated at […], 5% CO2 for 2 days.
(§7) RORγ transcriptional activity was detected as the intracellular luciferase activity using SteadyLite HTS Reporter Gene Assay System (Perkin Elmer). SteadyLite Reagent was diluted five-fold with Extension buffer (10 mM Tricine, 0.2% (w/v) bovine serum albumin, 0.02% (v/v) Tween-20) to obtain a luciferase substrate solution. After the measurement of the cell viability with Resazurin, the medium was removed in the plate and the luciferase substrate solution was added thereto. After the incubation at room temperature for 10 minutes, luminescence of each well was measured with a microplate reader. The luciferase activity derived from the luminescence count in a vehicle-control well treated with 0.2% DMSO alone was defined as 100%, and the luciferase activity after treatment with the test compound was calculated as a percentage, %-of-control, based on the value of the vehicle-control. An EC50 value of the test compound was calculated by curve fitting with GraphPad Prism. The luminescence counts at the concentration of test compound where cytotoxicity was observed were excluded from data analysis. […]

human RORγ = target: T2, human RORγ (Homo sapiens, UniProt P51449); assay: In-vitro reporter gene assay for inhibitory activity against RORγ transcription, Test Method A (GAL4-hRORγ LBD / pG5-Luc in CHO cells); assay type: cell-based; settings: luciferase reporter, 2 days
T2 construct: from Ser253 to Lys518 for human RORγ; expressed in transfected cells; host or cells: CHO cells (transient co-transfection with pG5-Luc)
T2 sequence (P51449 253-518): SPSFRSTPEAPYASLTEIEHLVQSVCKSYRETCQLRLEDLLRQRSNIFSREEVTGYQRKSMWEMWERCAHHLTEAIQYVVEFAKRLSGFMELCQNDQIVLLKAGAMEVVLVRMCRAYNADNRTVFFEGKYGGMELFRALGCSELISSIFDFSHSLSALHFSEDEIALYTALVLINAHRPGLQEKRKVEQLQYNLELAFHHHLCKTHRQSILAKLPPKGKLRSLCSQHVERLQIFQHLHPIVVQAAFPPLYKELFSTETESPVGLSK
Method: as §1, §2, §3, §4, §5, §6, §7

In the case of `CC(C)(C)CCc1ccc(C23COC(C)(C)C2=CN(CCC(=O)O)C(=O)N3)cc1Cl` (single isomer, unassigned) [Example 5], the EC50 (mouse RORγ) is reported as 0.009 µM and the EC50 (human RORγ) is reported as 0.007 µM.

`CC(C)(C)CCc1ccc(C23COC(C)(C)C2=CN(CCC(=O)O)C(=O)N3)cc1Cl` (single isomer, unassigned) [Example 6] was tested, and the EC50 (mouse RORγ) was 0.714 µM and the EC50 (human RORγ) was 0.554 µM.

`CC(C)(C)CCc1ccc(C23COC(C)(C)C2=CN(c2ccc(C(=O)O)cc2)C(=O)N3)cc1Cl` (single isomer, unassigned) [Example 7] was tested, and the EC50 (mouse RORγ) was 0.011 µM and the EC50 (human RORγ) was 0.009 µM.

Molecule `CC(C)(C)CCc1ccc(C23COC(C)(C)C2=CN(c2ccc(C(=O)O)cc2)C(=O)N3)cc1Cl` (single isomer, unassigned) [Example 8] has an EC50 (mouse RORγ) of 0.381 µM and an EC50 (human RORγ) of 0.427 µM.

`CC(C)(C)CCc1ccc([C@]23CCC(C)(C)C2=CN(c2ccc(C(=O)O)cc2)C(=O)N3)cc1Cl` (single isomer, unassigned) [Example 9] showed an EC50 (mouse RORγ) of 1.47 µM and an EC50 (human RORγ) of 0.819 µM.

`CC(C)(C)CCc1ccc(C23CCC(C)(C)C2=CN(c2ccc(C(=O)O)cc2)C(=O)N3)cc1Cl` (single isomer, unassigned) [Example 10, 4-{7a-[3-Chloro-4-(3,3-dimethyl-butyl)phenyl]-5,5-dimethyl-2-oxo-1,2,5,6,7,7a-hexahydro-cyclopentapyrimidin-3-yl}benzoic acid] gave an EC50 (mouse RORγ) of 0.03 µM and an EC50 (human RORγ) of 0.016 µM.

Work on `C[C@@H]1CCC2(c3ccc(CCC(C)(C)C)c(Cl)c3)NC(=O)N(CCC(=O)O)C=C12` (single isomer, unassigned) [Example 11] yielded an EC50 (mouse RORγ) of 0.022 µM and an EC50 (human RORγ) of 0.021 µM.

`C[C@@H]1CCC2(c3ccc(CCC(C)(C)C)c(Cl)c3)NC(=O)N(CCC(=O)O)C=C12` (single isomer, unassigned) [Example 12] gave an EC50 (mouse RORγ) of 3.43 µM and an EC50 (human RORγ) of 2.58 µM.

With `CC(C)(C)CCc1ccc([C@]23COC(COCc4ccccc4)C2=CN(CCC(=O)O)C(=O)N3)cc1Cl` (single isomer, unassigned) [Example 15] the EC50 (mouse RORγ) was > 8 µM and the EC50 (human RORγ) was > 8 µM.

In the case of `CC(C)(C)CCc1ccc([C@@]23COC(COCc4ccccc4)C2=CN(CCC(=O)O)C(=O)N3)cc1Cl` (single isomer, unassigned) [Example 16], the EC50 (mouse RORγ) is reported as 0.774 µM and the EC50 (human RORγ) is reported as 0.755 µM.

`CC(C)(C)CCc1ccc([C@]23COC(CO)C2=CN(CCC(=O)O)C(=O)N3)cc1Cl` (single isomer, unassigned) [Example 17] was tested, and the EC50 (mouse RORγ) was > 20 µM and the EC50 (human RORγ) was > 20 µM.

For `CC(C)(C)CCc1ccc([C@@]23COC(CO)C2=CN(CCC(=O)O)C(=O)N3)cc1Cl` (single isomer, unassigned) [Example 18], the EC50 (mouse RORγ) was 0.452 µM and the EC50 (human RORγ) was 0.773 µM.

Molecule `COCC1OC[C@]2(c3ccc(CCC(C)(C)C)c(Cl)c3)NC(=O)N(CCC(=O)O)C=C12` (single isomer, unassigned) [Example 19] has an EC50 (mouse RORγ) of 15.6 µM and an EC50 (human RORγ) of 17.1 µM.

`COCC1OC[C@@]2(c3ccc(CCC(C)(C)C)c(Cl)c3)NC(=O)N(CCC(=O)O)C=C12` (single isomer, unassigned) [Example 20] showed an EC50 (mouse RORγ) of 0.025 µM and an EC50 (human RORγ) of 0.025 µM.

Work on `CC(C)(C)CCc1ccc(C23COC(COC(C)(C)C)C2=CN(CCC(=O)O)C(=O)N3)cc1Cl` (single isomer, unassigned) [Example 21] yielded an EC50 (mouse RORγ) of 1.27 µM and an EC50 (human RORγ) of 2.26 µM.

In the case of `CC(C)(C)CCc1ccc(C23COC(COC(C)(C)C)C2=CN(CCC(=O)O)C(=O)N3)cc1Cl` (single isomer, unassigned) [Example 22], the EC50 (mouse RORγ) is reported as > 8 µM and the EC50 (human RORγ) is reported as 16.2 µM.

`CC(C)(C)CCc1ccc(C23CCC(CCO)C2=CN(CCC(=O)O)C(=O)N3)cc1Cl` (single isomer, unassigned) [Example 25] showed an EC50 (mouse RORγ) of 0.105 µM and an EC50 (human RORγ) of 0.092 µM.

`CC(C)(C)CCc1ccc(C23CCC(CCOCc4ccccc4)C2=CN(CCC(=O)O)C(=O)N3)cc1Cl` (single isomer, unassigned) [Example 26] gave an EC50 (mouse RORγ) of 0.243 µM and an EC50 (human RORγ) of 0.351 µM.

Molecule `COCCC1CCC2(c3ccc(CCC(C)(C)C)c(Cl)c3)NC(=O)N(CCC(=O)O)C=C12` (single isomer, unassigned) [Example 27, 3-{7a-[3-Chloro-4-(3,3-dimethyl-butyl)phenyl]-5-(2-methoxy-ethyl)-2-oxo-1,2,5,6,7,7a-hexahydro-cyclopentapyrimidin-3-yl}propionate] has an EC50 (mouse RORγ) of 0.039 µM and an EC50 (human RORγ) of 0.027 µM.

`CN(C)CCC1CCC2(c3ccc(CCC(C)(C)C)c(Cl)c3)NC(=O)N(CCC(=O)O)C=C12` (single isomer, unassigned) [Example 28] was tested, and the EC50 (mouse RORγ) was > 20 µM and the EC50 (human RORγ) was > 20 µM.

`CC(C)(C)CCc1ccc(C23CCC(CO)C2=CN(CCC(=O)O)C(=O)N3)cc1Cl` (single isomer, unassigned) [Example 29] gave an EC50 (mouse RORγ) of 0.103 µM and an EC50 (human RORγ) of 0.173 µM.

For `CC(C)(C)CCc1ccc(C23CC(C)(C)CC2=CN(CCC(=O)O)C(=O)N3)cc1Cl` (single isomer, unassigned) [Example 32], the EC50 (mouse RORγ) was 0.018 µM and the EC50 (human RORγ) was 0.021 µM.

In the case of `CC(C)(C)CCc1ccc(C23CC(C)(C)CC2=CN(CCC(=O)O)C(=O)N3)cc1Cl` (single isomer, unassigned) [Example 33], the EC50 (mouse RORγ) is reported as > 3.2 µM and the EC50 (human RORγ) is reported as 2.96 µM.

In the case of `CC(C)(C)CCc1ccc([C@]23CCCC(C)(C)C2=CN(CCC(=O)O)C(=O)N3)cc1Cl` (single isomer, unassigned) [Example 37], the EC50 (mouse RORγ) is reported as 5.51 µM and the EC50 (human RORγ) is reported as 3.87 µM.

Work on `CC(C)(C)CCc1ccc([C@@]23CCCC(C)(C)C2=CN(CCC(=O)O)C(=O)N3)cc1Cl` (single isomer, unassigned) [Example 38] yielded an EC50 (mouse RORγ) of 0.021 µM and an EC50 (human RORγ) of 0.011 µM.

With `CC(C)(C)CCc1ccc([C@]23CCCCC2=CN(CCC(=O)O)C(=O)N3)cc1Cl` (single isomer, unassigned) [Example 40] the EC50 (mouse RORγ) was 5.33 µM and the EC50 (human RORγ) was 4.64 µM.

Work on `CC(C)(C)CCc1ccc([C@@]23CCCCC2=CN(CCC(=O)O)C(=O)N3)cc1Cl` (single isomer, unassigned) [Example 41] yielded an EC50 (mouse RORγ) of 0.013 µM and an EC50 (human RORγ) of 0.017 µM.

Work on `CC1CCC2(c3ccc(CCC(C)(C)C)c(Cl)c3)NC(=O)N(CCC(=O)O)C=C2C1` (single isomer, unassigned) [Example 66] yielded an EC50 (mouse RORγ) of 0.03 µM and an EC50 (human RORγ) of 0.024 µM.

`COC1CC[C@]2(c3ccc(CCC(C)(C)C)c(Cl)c3)NC(=O)N(CCC(=O)O)C=C2C1` (single isomer, unassigned) [Example 67] was tested, and the EC50 (mouse RORγ) was 8.34 µM and the EC50 (human RORγ) was 4.72 µM.

Work on `COC1CC[C@@]2(c3ccc(CCC(C)(C)C)c(Cl)c3)NC(=O)N(CCC(=O)O)C=C2C1` (single isomer, unassigned) [Example 68] yielded an EC50 (mouse RORγ) of 0.016 µM and an EC50 (human RORγ) of 0.015 µM.
